Article PMC2920140 (Inorganic chemistry, 2010)

Molecular target: T1, CLOCK PAS–A (murine CLOCK PAS-A domain, mCLOCK) (Mus musculus, UniProt O08785)
T1 sequence (O08785 103-265): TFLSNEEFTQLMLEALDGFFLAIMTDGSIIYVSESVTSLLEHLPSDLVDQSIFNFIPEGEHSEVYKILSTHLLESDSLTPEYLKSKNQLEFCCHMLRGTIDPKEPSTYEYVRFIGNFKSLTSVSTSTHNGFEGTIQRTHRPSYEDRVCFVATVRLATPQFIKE
Assay: UV-visible spectrophotometric titration, global nonlinear least squares fit
Format: binding

## C=CC1=C(C)C2=Cc3c(C=C)c(C)c4[n]3[Fe]([Cl])[n]3c(c(C)c(CCC(=O)O)c3=CC3=NC(=C4)C(C)=C3CCC(=O)O)=CC1=N2 [hemin]
  Kd: 1050 nM
